Consider seven compounds from US12233161B1, “Lipids and lipid nanoparticle formulations” (LONGUIDE BIOPHARMA CORPORATION, priority 2024, dated 2025).

Molecules are shown by their SMILES.

The assay deals with mice. Kind of assay: In vivo delivery of FLuc-mRNA lipid nanoparticles in mice, in vivo imaging (IVIS). The following applies: for IVIS / % of organ targeting: Fluc-mRNA LNP. As for the experimental part:
After the preparation was completed, the preparation was injected intramuscularly (mice rectus femoris muscle of the thigh), intravenously (mice tail vein), or intraperitoneal injection or subcutaneous injection (subcutaneous on the back), with approximately 75 μL per mouse, for a total of 3 mice. After a certain time of injection, in vivo imaging (PerkinElmer, IVIS Lumina III) was performed. 10-15 minutes before imaging, 200 μL of 15 mg/mL D-Luciferin working solution was injected intraperitoneally, and the imaging analysis was performed using an in vivo imager.

[1] abbreviates: route IH, organ: body, DSPE-PEG5000:DSPC:Chol:compound 1.40:11.15:38.95:48.50, N/P 30.
Where [2] appears, read: route IH, organ: spleen, DSPE-PEG5000:DSPC:Chol:compound 1.40:11.15:38.95:48.50, N/P 30.
Where [3] appears, read: route IM, 1 h (live), DSPE-PEG5000:DSPC:Chol:compound 1.40:11.15:38.95:48.50, N/P 30.
Where [4] appears, read: route IM, 1 h (lung), DSPE-PEG5000:DSPC:Chol:compound 1.40:11.15:38.95:48.50, N/P 30.
Setting [5] is: route IM, 1 h (spleen), DSPE-PEG5000:DSPC:Chol:compound 1.40:11.15:38.95:48.50, N/P 30.
The mark [6] stands for this setting: route IM, 2 h (live), DSPE-PEG5000:DSPC:Chol:compound 1.40:11.15:38.95:48.50, N/P 30.
The mark [7] stands for this setting: route IM, 2 h (lung), DSPE-PEG5000:DSPC:Chol:compound 1.40:11.15:38.95:48.50, N/P 30.
The mark [8] stands for this setting: route IM, 2 h (spleen), DSPE-PEG5000:DSPC:Chol:compound 1.40:11.15:38.95:48.50, N/P 30.
[9] abbreviates: route IM, 3 h (live), DSPE-PEG5000:DSPC:Chol:compound 1.40:11.15:38.95:48.50, N/P 30.
The mark [10] stands for this setting: route IM, 3 h (lung), DSPE-PEG5000:DSPC:Chol:compound 1.40:11.15:38.95:48.50, N/P 30.
The mark [11] stands for this setting: route IM, 3 h (spleen), DSPE-PEG5000:DSPC:Chol:compound 1.40:11.15:38.95:48.50, N/P 30.
The mark [12] stands for this setting: route IM, 6 h (live), DSPE-PEG5000:DSPC:Chol:compound 1.40:11.15:38.95:48.50, N/P 30.
The mark [13] stands for this setting: route IM, 6 h (lung), DSPE-PEG5000:DSPC:Chol:compound 1.40:11.15:38.95:48.50, N/P 30.
Setting [14] is: route IM, 6 h (spleen), DSPE-PEG5000:DSPC:Chol:compound 1.40:11.15:38.95:48.50, N/P 30.
Setting [15] is: route IM, organ not given, formulation, molar ratio and N/P as in the table.
[16] abbreviates: route IV, organ: body, formulation, molar ratio and N/P as in the table.
Setting [17] is: route IV, organ: liver, formulation, molar ratio and N/P as in the table.
Setting [18] is: route IV, organ: lung, formulation, molar ratio and N/P as in the table.
[19] abbreviates: route IV, organ: spleen, formulation, molar ratio and N/P as in the table.
[20] abbreviates: route IH, organ: liver, DSPE-PEG5000:DSPC:Chol:compound 1.40:11.15:38.95:48.50, N/P 30.
Setting [21] is: route IH, organ: lung, DSPE-PEG5000:DSPC:Chol:compound 1.40:11.15:38.95:48.50, N/P 30.
[22] abbreviates: route IM, organ: liver, formulation, molar ratio and N/P as in the table.
Where [23] appears, read: route IM, organ: lung, formulation, molar ratio and N/P as in the table.
Where [24] appears, read: route IM, organ: muscle, formulation, molar ratio and N/P as in the table.
[25] abbreviates: route IM, organ: spleen, formulation, molar ratio and N/P as in the table.

Consider `CCCCCCC(CCCCCC)C(=O)NCCOC(=O)C(O)CN(CCCN(C)CCCN(CC(O)C(=O)OCCNC(=O)C(CCCCCC)CCCCCC)CC(O)C(=O)OCCNC(=O)C(CCCCCC)CCCCCC)CC(O)C(=O)OCCNC(=O)C(CCCCCC)CCCCCC` (stereo not drawn) [Compound L0361], for which the IVIS under setting [1] amounted to 1.54E+08; the IVIS under setting [2] worked out at 3.59E+04; the IVIS under setting [3] is 6.62E+05; the IVIS under setting [4] amounted to 4.37E+04; the IVIS (route IM, 1 h (muscle), DSPE-PEG5000:DSPC:Chol:compound 1.40:11.15:38.95:48.50, N/P 30) is listed as 1.07E+08; the IVIS under setting [5] is reported as 3.25E+05. The compound also gave an IVIS under setting [6] of 7.54E+06; an IVIS under setting [7] of 1.63E+05; an IVIS (route IM, 2 h (muscle), DSPE-PEG5000:DSPC:Chol:compound 1.40:11.15:38.95:48.50, N/P 30) of 1.87E+08; an IVIS under setting [8] of 4.77E+06; an IVIS under setting [9] of 4.54E+06; an IVIS under setting [10] of 5.32E+05. The IVIS runs as follows: (route IM, 3 h (muscle), DSPE-PEG5000:DSPC:Chol:compound 1.40:11.15:38.95:48.50, N/P 30) 2.97E+08; under setting [11], 5.45E+06; under setting [12], 1.17E+07; under setting [13], 6.06E+05; (route IM, 6 h (muscle), DSPE-PEG5000:DSPC:Chol:compound 1.40:11.15:38.95:48.50, N/P 30) 2.62E+08; under setting [14], 9.42E+06. Also, the IVIS is, setting by setting: under setting [15], 1.14E+08; under setting [16], 4.99E+07; under setting [17], 1.24E+07; under setting [18], 1.36E+07; under setting [19], 5.05E+07. The “% of organ targeting” value is listed as 63.15% under setting [3]; 4.17% under setting [4]; 31.03% under setting [5]; 58.75% under setting [6]; 1.27% under setting [7]; 37.18% under setting [8]. Besides, the “% of organ targeting” value is, setting by setting: under setting [9], 42.49%; under setting [10], 4.98%; under setting [11], 50.95%; under setting [12], 52.52%; under setting [13], 2.72%; under setting [14], 42.27%.

On to `CCCCCCC(CCCCCC)C(=O)NCCOC(=O)C(O)CN(CCN(C)CCN(CC(O)C(=O)OCCNC(=O)C(CCCCCC)CCCCCC)CC(O)C(=O)OCCNC(=O)C(CCCCCC)CCCCCC)CC(O)C(=O)OCCNC(=O)C(CCCCCC)CCCCCC` (stereo not drawn) [Compound L0362], for which the IVIS amounted to 1.38E+08 under setting [1]; 1.80E+07 under setting [20]; 3.28E+05 under setting [21]; 9.50E+06 under setting [2]; 2.62E+07 under setting [22]; 4.55E+05 under setting [23]. Further, the IVIS reads like this: under setting [24], 3.43E+08; under setting [25], 2.09E+07. Also, the “% of organ targeting” value is, setting by setting: under setting [20], 62.89%; under setting [21], 1.15%; under setting [2], 33.19%; under setting [22], 44.30%; under setting [23], 0.77%; under setting [25], 35.43%.

In the case of `CCCCCCCCCCN(C)C(=O)C(O)CN(CCCN(CC(O)C(=O)N(C)CCCCCCCCCC)CC(O)C(=O)N(C)CCCCCCCCCC)CCCN(CC(O)C(=O)N(C)CCCCCCCCCC)CC(O)C(=O)N(C)CCCCCCCCCC` (stereo not drawn) [Compound L0353], the IVIS by setting is: under setting [15], 1.68E+07; under setting [16], 1.21E+08; under setting [17], 3.54E+07; under setting [18], 3.33E+06; under setting [19], 7.33E+07. Moreover, the “% of organ targeting” value runs as follows: under setting [17], 31.60%; under setting [18], 2.97%; under setting [19], 65.43%.

On to `CCCCCCCCC(CCCCCC)C(=O)OCCCCNC(=O)C(O)CN(CCCN(CC(O)C(=O)NCCCCOC(=O)C(CCCCCC)CCCCCCCC)CC(O)C(=O)NCCCCOC(=O)C(CCCCCC)CCCCCCCC)CCCN(CC(O)C(=O)NCCCCOC(=O)C(CCCCCC)CCCCCCCC)CC(O)C(=O)NCCCCOC(=O)C(CCCCCC)CCCCCCCC` (stereo not drawn) [Compound L0378], for which the “% of organ targeting” value by setting is: under setting [22], 37.15%; under setting [23], 12.65%; under setting [25], 50.19%; under setting [17], 45.43%; under setting [18], 0.60%; under setting [19], 53.97%. For the same compound, the IVIS by setting is: under setting [22], 1.82E+05; under setting [23], 6.19E+04; under setting [24], 3.09E+07; under setting [25], 2.45E+05; under setting [16], 2.77E+08; under setting [17], 5.93E+07. Further, the IVIS was found to be 7.82E+05 under setting [18] and 7.04E+07 under setting [19]. The “organ targeting specificity (spleen or lung), in words” value (Table 3, Fluc-mRNA, various formulations) is “strong targeting specificity to deliver to spleen”.

In the case of `CCCCCCCCCCN(C)C(=O)C(O)CN(CCN(C)CCN(CC(O)C(=O)N(C)CCCCCCCCCC)CC(O)C(=O)N(C)CCCCCCCCCC)CC(O)C(=O)N(C)CCCCCCCCCC` (stereo not drawn) [Compound L0349], the IVIS under setting [15] amounted to 8.25E+04; the IVIS (route IV, organ not given, formulation, molar ratio and N/P as in the table) is reported as 5.98E+05.

Consider `CCCCCCCCC(CCCCCC)C(=O)NCCOC(=O)C(O)CN(CCCN(C)CCCN(CC(O)C(=O)OCCNC(=O)C(CCCCCC)CCCCCCCC)CC(O)C(=O)OCCNC(=O)C(CCCCCC)CCCCCCCC)CC(O)C(=O)OCCNC(=O)C(CCCCCC)CCCCCCCC` (stereo not drawn) [Compound L0373], for which the IVIS is recorded as 8.38E+06 under setting [15]; 7.79E+07 under setting [16]; 9.41E+06 under setting [17]; 1.10E+07 under setting [18]; 6.08E+07 under setting [19]. Moreover, the “% of organ targeting” value was 11.58% under setting [17], 13.53% under setting [18] and 74.89% under setting [19].

For `CCCCCCC(CCCCCC)C(=O)NCCNC(=O)C(O)CN(CCN(C)CCN(CC(O)C(=O)NCCNC(=O)C(CCCCCC)CCCCCC)CC(O)C(=O)NCCNC(=O)C(CCCCCC)CCCCCC)CC(O)C(=O)NCCNC(=O)C(CCCCCC)CCCCCC` (stereo not drawn) [Compound L0380], the “% of organ targeting” value under setting [22] worked out at 61.06%; the “% of organ targeting” value under setting [23] was 1.54%; the “% of organ targeting” value under setting [25] worked out at 37.40%; the “% of organ targeting” value under setting [17] is 96.36%; the “% of organ targeting” value under setting [18] is 0.40%; the “% of organ targeting” value under setting [19] is reported as 3.24%. Besides, the IVIS by setting is: under setting [22], 3.14E+07; under setting [23], 7.90E+05; under setting [24], 4.58E+08; under setting [25], 1.92E+07; under setting [16], 7.98E+09; under setting [17], 2.14E+09. The IVIS is 8.80E+06 under setting [18] and 7.18E+07 under setting [19].
